Values quoted from earlier work as cited in patent US20020004489A1, “Retinoid receptor interacting polynucleotides, polypeptides, and antibodies” (priority 1999, published 2002).

Key:
[1] = tested on: protease inhibitor-resistant viruses
[2] = tested on: viruses containing the K103N mutation
[3] = tested on: lamivudine-resistant isolates
[4] = deletion of 8-10 C-terminal residues, versus undeleted protein

## Cc1ccccc1CNC(=O)[C@H]1N(C(=O)[C@@H](O)[C@H](Cc2ccccc2)NC(=O)c2cccc(O)c2C)CSC1(C)C [AG-1776]
[1]
  in vitro activity against protease inhibitor-resistant viruses: in vitro activity against protease inhibitor-resistant viruses

## CC(C)c1nc(COC(N)=O)n(Cc2ccncc2)c1Sc1cc(Cl)cc(Cl)c1 [CAPRAVIRINE]
[2]
  activity against K103N mutants: activity against viruses containing the K103N mutation

## Nc1nc(=O)n([C@@H]2CS[C@H](CO)O2)cc1F [COVIRACIL, emtricitabine]
HIV; in vitro, greater activity than lamivudine (3TC)
  activity in vitro relative to lamivudine (3TC): 3- to 10 fold

## Nc1nc(=O)n([C@H]2C=C[C@@H](CO)O2)cc1F [DD4FC]
AZT/3TC-resistant virus
  activity against AZT/3TC-resistant virus: activity against AZT/3TC-resistant virus

## CC[C@H]1C(=O)Nc2ccc(F)cc2N1C(=O)OC(C)C [GW-420867X]
HIV; greater activity than HBY097
  activity relative to HBY097: 25 fold
[2]
  activity against K103N mutants: active against K103N mutants

## C[C@H](Sc1nc(N)cc(Cl)n1)c1cc2ccoc2cn1 [PNU-142721]
HIV; greater activity than delavirdine
  activity relative to its predecessor delavirdine: 20- to 50 fold
[2]
  activity against K103N mutants: active against K103N mutants

## Nc1ccn([C@H]2CO[C@@H](CO)S2)c(=O)n1 [dOTC]
[3]
  activity against lamivudine-resistant isolates: retains activity against a substantial proportion of lamivudine-resistant isolates

## Interferon gamma
[4]
  activity after deleting 8-10 amino acid residues from the carboxy terminus: up to ten times higher activity
